# Experiments:
# [1] = test system: RPMI8226, L363 and XG-1 cells; test: Complement-inhibitory protein expression on MM cell lines by flow cytometry; type: cell-based, human; conditions: 0-25 nM ATRA, 48 hour
# Procedure: (§1) Expression of several cell surface proteins was determined by flow cytometric analysis using FITC-, PE-, Per-CP-, or APC-conjugated monoclonal antibodies. Anti-CD38, anti-CD138, and anti-CD56 were purchased from Beckman Coulter; anti-CD3, anti-CD16, anti-CD55, anti-CD59 from BD Biosciences; and anti-CD46 from Biolegend. Flow cytometry was done using a FACS-Calibur device (Becton Dickinson); the data were analyzed using the CellQuest software.
# (§2) The effect of ATRA on effector cells was evaluated. […] In the experiments, cells were cultured at 37° C. with RPMI-1640 medium with or without 10 nM ATRA 10 nM for 48 h. Cells were then incubated at 4° C. for 20 min with the appropriate conjugated antibodies panel. Flow cytometric analyses were performed using a FACS-Calibur device (Becton Dickinson); the data were analyzed using the CellQuest software.
# primary MM cells [2] = test: Flow cytometry-based ex vivo CDC assay in BM-MNC; type: cell-based, human; conditions: for CDC, median: 10 μg/mL daratumumab, pooled patients
# Procedure: (§3) Freshly isolated BM-MNCs, containing 2-57% malignant plasma cells as determined by flow cytometry, were immediately used in ex vivo experiments. […] Pooled human serum (10%) was used as a source of complement. The survival of primary CD138^+ MM cells in the BM-MNCs was determined by flow-cytometry as previously described (van der Veers et al., Haematologica 96:284-290, 2011; van der Veers et al., Blood Cancer J 1:e41, 2011). Surviving MM cells were enumerated by single platform flow-cytometric analysis of CD138^+ cells (with CD138-PE (Beckman Coulter, Miami, Fla., USA)) in the presence of Flow-Count Fluorospheres (Beckman Coulter) to determine absolute numbers of cells.
# XG-1 cells [3] = test: BLI-based ADCC assay, XG-1; conditions: 10 nM ATRA 48 hours vs solvent control
# Procedure: (§5) For MM cell lines, CDC and ADCC were assessed using bioluminescence imaging (BLI) based ADCC and CDC assays as described above. For primary MM cells, CDC and ADCC were assessed using Flow cytometry-based ex vivo ADCC and CDC assays in BM-MNC as described above. […] Isotype control was added at 10 μg/ml, and 10% heat-inactivated serum was used as control for CDC.
# RPMI8226 cells [4] = test: BLI-based ADCC assay, RPMI8226; conditions: 10 nM ATRA 48 hours
# Procedure: as §5
# [5] = test system: MM cell lines XG-1, RPMI8226 and UM9; test: BLI-based ADCC and CDC assays, ATRA alone; type: cell-based, human; conditions: 10 nM ATRA alone
# [6] = test system: PBMCs from healthy donors; human MM cell lines L363-CD38, LME-1, RPMI8226 and UM9; test: Effect of ATRA on effector cells (PBMC-induced ADCC); type: cell-based; conditions: data not shown
# Procedure: as §2
# XG-1 cells [7] = test: BLI-based CDC assay, XG-1; type: cell-based, human; conditions: 10 nM ATRA 48 hours vs solvent control
# [8] = test system: primary MM cells (BM-MNCs from 26 MM patients); test: Ex vivo ATRA exposure of primary MM cells, surface antigen expression by flow cytometry; type: cell-based, human; conditions: 10 nM ATRA, 48 hours
# Procedure: as §1
# Ex vivo ATRA exposure (10 nM, 48 hours) of primary MM cells from 26 patients was also studied. In these experiments, BM-MNCs from 26 MM patients were incubated with RPMI-1640 medium alone or with 10 nM ATRA for 48 hours, incubated at 4° C. for 20 min with FITC-conjugated CD38 antibody (Beckman Coulter) and then harvested to determine CD38 expression by flow cytometry. Flow cytometric analyses were performed using a FACS-Calibur device (Becton Dickinson); the data were analyzed using the CellQuest software.
# [9] = test system: luciferase-transduced XG1 multiple myeloma cells; test: Humanized multiple myeloma mouse model, tumor growth by BLI; type: in vivo, RAG2−/−γc−/− mice; conditions: for tumor progression (BLI): single agent plus PBMC-T, daratumumab 8 mg/kg i.p., ATRA 10 mg/kg i.p., weekly BLI for 5 weeks
# From the text: Hybrid scaffolds consisting of three 2-3 mm biphasic calcium phosphate particles were coated in vitro with human mesenchymal stromal cells (MSCs; 2×10^5 cells/scaffold). After a week of in vitro culture in a osteogenic medium, humanized scaffolds were implanted subcutaneously into RAG2^−/−γc^−/− mice, as described previously (Groen et al., Blood. 19; 120:e9-e16, 2012; de Haart et al., Clin. Cancer Res. 19:5591-5601, 2013).
# Eight weeks after implantation, mice received a sublethal irradiation dose (3 Gy, 200 kV, 4 mA) and luciferase-transduced XG1 cells were injected directly into the scaffold (1×10^6 cells/scaffold). […] PBMC-T were prepared by Ficoll-Hypaque density-gradient centrifugation of buffy coats, and subsequent depletion of T cells by CD3-beads using the Easy Sep™-technology ([…] Technologies). Tumor growth was monitored by weekly BLI measurements as described previously (Groen et al., Blood. 19; 120:e9-e16, 2012). All animal experiments were conducted after acquiring permission from the local ethical committee for animal experimentation and were in compliance with the Dutch Animal Experimentation Act. The statistical differences between the different treatment groups in the mice experiments were calculated using a Mann-Whitney test. P-values below 0.05 were considered significant.
# Luciferase-transduced XG1 multiple myeloma cells developed into aggressive tumors in immunodeficient RAG2^−/−γc^−/− mice in a humanized bone marrow microenvironment generated by subcutaneous implantation of MSC-coated ceramic scaffolds. […] To follow the outgrowth of the tumor, BLI was performed weekly for 5 weeks.
# RPMI8226 cells [10] = test: BLI-based CDC assay, RPMI8226; type: cell-based, human; conditions: 10 nM ATRA 48 hours
# UM9 cells [11] = test: BLI-based ADCC assay, UM9; conditions: 10 nM ATRA 48 hours vs solvent control
# Procedure: as §5
# UM9 cells [12] = test: CD38 expression by flow cytometry, UM9; type: cell-based, human; conditions: ATRA
# Procedure: as §1
# (§4) Interaction of ATRA with nuclear retinoic acid receptors results in altered expression of target genes including induction of CD38 expression (Malavasi F. J Leukoc Biol 90:217-219, 2011; Drach et al., Cancer Res 54:1746-1752, 1994). Therefore, effect of ATRA on MM cell lines RPMI8226, UM9, and XG1 was studied. MM cells were incubated with RPMI-1640 medium alone or with ATRA ranging from 0-25 nM for 48 hours (FIG. 1A) or were incubated with 10 nM ATRA for 24, 48, 72 or 96 hours (FIG. 1B) and then harvested to determine CD38 expression by flow cytometry using a FACS-Calibur device (Becton Dickinson) and anti-CD38 antibody (Beckman Coulter). The data were analyzed using the CellQuest software.
# RPMI8226 cells [13] = test: CD38 expression by flow cytometry, RPMI8226; type: cell-based, human; conditions: ATRA
# Procedure: as §1, §4
# [14] = test system: primary MM cells derived from 16 patients; test: Complement-inhibitory protein expression on primary MM cells by flow cytometry; type: cell-based, human; conditions: 10 nM ATRA, 48 h
# Procedure: as §1, §2
# [15] = test system: MM cell lines RPMI8226, UM9, and XG1; test: CD38 expression on MM cell lines by flow cytometry (pooled statement); type: cell-based, human
# Procedure: as §1, §4
# primary MM cells [16] = test: Flow cytometry-based ex vivo ADCC assay in BM-MNC; type: cell-based, human; conditions: for ADCC, median: 10 μg/mL daratumumab, pooled patients
# Procedure: as §3, with “experiments. […] Sample viability at incubation was more than 98%, as assessed by using ToPro-3 (Invitrogen/Molecular Probes).” for “experiments.”
# XG-1 cells [17] = test: CD38 expression by flow cytometry, XG-1; type: cell-based, human; conditions: ATRA
# Procedure: as §1, §4
# [18] = after 10 nM ATRA pretreatment 48 hours
compound,measurement,setting,value
"CC1=C(/C=C/C(C)=C/C=C/C(C)=C/C(=O)O)C(C)(C)CCC1 [ATRA, all-trans retinoic acid]",CD46 expression levels,[1],reduced expression levels
same,CD55 expression levels,[1],reduced expression levels
same,CD59 expression levels,[1],reduced expression levels
same,patients with significant increase in susceptibility to daratumumab-mediated CDC,primary MM cells [2]; ATRA pretreatment 48 hours,13 out of 16
same,effect of ATRA on daratumumab-mediated CDC in cells not responsive to daratumumab alone,"primary MM cells [2]; for example patients 1, 4, 8, 12, 13, 15 and 16",induced daratumumab-mediated CDC
same,effect of ATRA enhancing daratumumab-mediated CDC in some patient samples,"primary MM cells [2]; for example patients 6, 7 and 14",no additional effect
same,effect of ATRA pretreatment on daratumumab-mediated ADCC,XG-1 cells [3],significantly increased
same,effect of ATRA pretreatment on daratumumab-mediated ADCC,RPMI8226 cells [4],no significant improvement
same,MM cell lysis by ATRA alone,[5],no MM cell lysis
same,effect on ability of PBMCs to induce ADCC,[6],no effect or minimal effect
same,effect of ATRA pretreatment on daratumumab-mediated CDC,XG-1 cells [7],significantly increased
same,"CD138 expression levels, median increase",[8],2.0 fold
same,expression of CD56,[8],no significant changes
same,expression of HLA A/B/C,[8],no significant changes
same,"CD38 expression increase, range",[8]; 26 patients,1.0-26.5 fold
same,"CD38 expression, median increase",[8]; 26 patients,1.7 fold
same,effect of ATRA on anti-MM effect of daratumumab,[9]; daratumumab 8 mg/kg plus ATRA 10 mg/kg plus PBMC-T vs daratumumab plus PBMC-T,significantly enhanced
same,tumor progression (BLI),[9],no effect
same,effect of ATRA pretreatment on daratumumab-mediated CDC,RPMI8226 cells [10],no significant improvement
same,effect of ATRA pretreatment on daratumumab-mediated ADCC,UM9 cells [11],significantly increased
same,enhanced CD38 expression,UM9 cells [12],4.4 fold
same,upregulation of CD38 expression,RPMI8226 cells [13],1.9 fold
same,CD46 expression levels,[14],did not significantly affect
same,"expression of CD59, mean reduction",[14]; P=0.0047,37.5%
same,"expression of CD55, mean reduction",[14]; P=0.019,21.3%
same,increase in CD38 expression,"[15]; 10 nM ATRA (minimum sufficient), 48 hours, RPMI8226, UM9, XG1",1.9-4.4 fold
same,time of maximum enhancement of CD38 expression,"[15]; 10 nM ATRA for 24, 48, 72 or 96 hours",48 h
same,CD38 expression at higher doses of ATRA,"[15]; doses above 10 nM up to 25 nM, 48 hours",did not further enhance
same,patients with significant increase in susceptibility to daratumumab-mediated ADCC,primary MM cells [16]; ATRA pretreatment 48 hours,8 out of 11
same,effect of ATRA on daratumumab-mediated ADCC,primary MM cells [16]; most primary MM cells tested,induced daratumumab-mediated ADCC
same,enhanced CD38 expression,XG-1 cells [17],2.9 fold
"daratumumab: anti-CD38 antibody, IgG1/κ, VH SEQ ID NO: 4, VL SEQ ID NO: 5, heavy chain SEQ ID NO: 12, light chain SEQ ID NO: 13","CDC, median",primary MM cells [2]; [18],43.9%
same,"CDC, median",primary MM cells [2]; without ATRA pretreatment,16.1%
same,tumor progression (BLI),[9],markedly slowed tumor progression
same,"ADCC, median",primary MM cells [16]; [18],39.5%
same,"ADCC, median",primary MM cells [16]; without ATRA pretreatment,25.1%

# Reference: patent US10604580B2, “Combination therapies with anti-CD38 antibodies” (Janssen Biotech, Inc., priority 2014, dated 2020)
